In US4555572A, “Pyrazolo[3,4,5-kl]acridine compositions and methods for their production and use” (Warner-Lambert Company, priority 1984, dated 1985):
Where a name gives a salt, the structure may show the parent alone. Read-outs that look alike come from different tables or passages of the source.

Key:
L1210 cells = experiment: PDC test, L1210 cell growth; type: cell-based, murine; conditions: Mus musculus, read-out: PDC ID50
Protocol: (c) Another test protocol is the PDC test. L1210 cells, a murine leukemia cell line, were grown in RPMI 1640 supplemented with 10% fetal bovine serum and genamicin (50 μg/ml). Drug dilutions were prepared in the appropriate solvent and 20 μl of each dilution were added to 24-well Linbro tissue culture plates followed by the addition of 2.0 ml of cell suspension containing 3×10^4 cells per ml. Solvent and medium controls were included in each test. After incubation at 37° C. for three days in 5% CO2 in air, the contents of each well were removed and the cells counted in a ZBI Coulter counter. Per cent growth was calculated relative to the controls and the levels of drug activity were expressed as ID50 in terms of molarity (M).

Escherichia coli = experiment: in vitro antibacterial (ABMF) microdilution susceptibility test; type: cell-based; conditions: read-out: ABMF Test M.I.C. E. coli
Outline: (§1)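 Standard microdilution susceptibility in Mueller-Hinton broth: inoculated wells contain test compound at 1000, 333, 111, 37, 12, 4, 1.4 and 0.46 μg/mL.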

Streptococcus pneumoniae = experiment: as above; type: cell-based; conditions: read-out: ABMF Test M.I.C. S. pneu.
Outline: as §1

Branhamella catarrhalis [1] = experiment: as above; type: cell-based; conditions: Moraxella catarrhalis, read-out: ABMF Test M.I.C. B. cata.
Outline: as §1

Alcaligenes viscolactis = experiment: as above; type: cell-based; conditions: read-out: ABMF Test M.I.C. A. visc.
Outline: as §1

Bacillus cereus = experiment: as above; type: cell-based; conditions: read-out: ABMF Test M.I.C. B. cere.
Outline: as §1

HCT-8 cells = experiment: in vitro proliferating human colon adenocarcinoma (HCA) cell screen, HCT-8; type: cell-based
Protocol: (a) One test protocol is the in vitro proliferating human colon adenocarcinoma (HCA) cell screen. In this test, HCT-8 cells (HCA cell line received from Yale University) are trypsinized using trypsin-EDTA. A single cell suspension is achieved by passing the cells through a 26 gauge needle with a 20-cc syringe. A cell suspension is prepared using RPMI 1640+10% FCS+50 μg/ml gentamicin sulfate with a cell concentration is approximately 30,000 cells/ml. The cell suspension is dispensed in Linbro 24-well plates; 1 ml/well. The plates are incubated for approximately 48 hours at 37° C. in a 5% CO2 atmosphere. At this time test compounds are added in the appropriate concentration. Five μl of the 200 μg/ml stock solution is added to each well in a primary test. […] of the appropriate dilution is added to each well for a titration test. The plates are reincubated an additional 60 to 65 hours at 37° C. in a 5% CO 2 atmosphere. The cells are lysed using a mix of cationic surfactant, glacial acetic acid, and sodium chloride. Two ml of the lysed cell suspension from each well is added to 8 ml of diluent. The number of nuclei is determined using a Coulter counter (ZBI model), and a percent growth for each drug concentration is calculated. From this, and ID50 (molar concentration of compound that results in 50% inhibition of growth) is determined.

[2] = system: lymphocytic leukemia P388; experiment: in vivo lymphocytic leukemia P388 test; set-up: species or system CD2 F1 mice; conditions: Mus musculus, P388, ip, 120 h
Outline: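 CD2 F1 mice (6–7 per group) inoculated i.p. with P388 ascitic cells; compound dosed i.p. once daily for 5 consecutive days after inoculation. Survival followed 30 days; efficacy as treated/control survival time ×100 (≥125 criterion); "toxic" if all animals died within 4 days of first dose.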

Bacillus subtilis = experiment: in vitro antibacterial/antifungal (ABF) agar-disk diffusion assay; type: cell-based
Protocol: (§2) (b) Another test protocol is the in vitro antibacterial/antifungal (ABF) test. Compounds are tested for antimicrobial activity in an agar-disk diffusion assay, a standard microbiological technique for testing antibiotics. After incubation of each culture with a test compound, a zone of inhibition is determined. The zone diameter (mm) of active compounds ranges from a minimum of 14 mm to as high as 60 mm, with a greater diameter reflecting higher activity. For convenience, values are reported for (Alcaligenes viscolactis, Sarcina lutea, Branhamella catarrhalis, Bacillus subtilis, and Streptococcus faecalis.

Branhamella catarrhalis [3] = experiment: as above; type: cell-based; conditions: Moraxella catarrhalis; dose .1 mg/ml; read-out: ABF zone diameter B. catarrh.
Protocol: as §2

Sarcina lutea = experiment: as above; type: cell-based; conditions: Micrococcus luteus, read-out: ABF zone diameter S. lutea
Protocol: as §2

Streptococcus faecalis = experiment: as above; type: cell-based; conditions: Enterococcus faecalis, read-out: ABF zone diameter S. faecalis
Protocol: as §2

[4] = HCT-8, read-out: HCA in vitro ID50 avg.
[5] = read-out: P388 in vivo T/C × 100, 6.25 mg/kg, intraperitoneally once daily for five days
[6] = read-out: P388 in vivo T/C × 100, 12.5 mg/kg, intraperitoneally once daily for five days
[7] = read-out: P388 in vivo T/C × 100, 25 mg/kg, intraperitoneally once daily for five days
[8] = Mueller-Hinton broth, 37° C., 16-24 hours
[9] = HCT-8 cells, 60 to 65 hours, ED50, read-out: HCA ED50 Avg.
[10] = 6.25 mg/kg, intraperitoneally once daily for five days, read-out: P388 in vivo T/C × 100
[11] = 12.5 mg/kg, intraperitoneally once daily for five days, read-out: P388 in vivo T/C × 100
[12] = 25 mg/kg, intraperitoneally once daily for five days, read-out: P388 in vivo T/C × 100
[13] = 50 mg/kg, intraperitoneally once daily for five days, read-out: P388 in vivo T/C × 100

SMILES | IC50 (L1210 cells; L1210, 72 h) | MIC (Escherichia coli) | MIC (Streptococcus pneumoniae) | MIC (Branhamella catarrhalis [1]) | MIC (Alcaligenes viscolactis) | MIC (Bacillus cereus) | response vs control in vivo at 6.25 mg/kg [2, 5] | response vs control in vivo at 12.5 mg/kg [2, 6] | IC50 (L1210 cells; 72 h, L1210 cells, three days) | MIC (Escherichia coli; [8]) | MIC (Streptococcus pneumoniae; [8]) | MIC (Branhamella catarrhalis [1]; [8]) | MIC (Alcaligenes viscolactis; [8]) | MIC (Bacillus cereus; [8]) | IC50 (HCT-8 cells; [9]) | response vs control in vivo at 6.25 mg/kg [2, 10] | response vs control in vivo at 12.5 mg/kg [2, 11] | response vs control in vivo at 25 mg/kg [2, 12] | response vs control in vivo at 50 mg/kg [2, 13] | further results
COc1ccc2c(c1)-c1nn(CCN(C)C)c3c([N+](=O)[O-])cc([N+](=O)[O-])c(c13)N2 [Example 54, 9-Methoxy-N,N-dimethyl-3,5-dinitropyrazolo[3,4,5-kl]acridine-2(6H)-ethanamine, methanesulfonate (1:1), hydrate] | 220 nM | 0.46 µg/mL | 0.46 µg/mL | 0.46 µg/mL | 0.46 µg/mL | 0.46 µg/mL | 169% | 236% |  |  |  |  |  |  |  |  |  |  |  | IC50 (HCT-8 cells; [4]): 55 nM; response vs control in vivo at 1.56 mg/kg ([2]; read-out: P388 in vivo T/C × 100, 1.56 mg/kg, intraperitoneally once daily for five days): 132%; response vs control in vivo at 3.12 mg/kg ([2]; read-out: P388 in vivo T/C × 100, 3.12 mg/kg, intraperitoneally once daily for five days): 137%
COc1ccc2c(c1)-c1nn(CCCN(C)C)c3ccc([N+](=O)[O-])c(c13)N2 [Example 45, 9-Methoxy-N,N-dimethyl-5-nitropyrazolo[3,4,5-kl]acridine-2(6H)-propanamine,methanesulfonate] | 420 nM | 12.3 µg/mL | < 0.46 µg/mL | 1.4 µg/mL | < 0.46 µg/mL | 1.4 µg/mL | 189% | 227% |  |  |  |  |  |  |  |  |  |  |  | IC50 (HCT-8 cells; HCT-8, read-out: HCA ED50 Avg.): 140 nM; response vs control in vivo at 25 mg/kg [2, 7]: 261%
CCOc1ccc2c(c1)-c1nn(CCNCCO)c3ccc([N+](=O)[O-])c(c13)N2 [Example 40, 2-[[2-(9-Ethoxy-5-nitropyrazolo[3,4,5-kl]acridin-2(6H)-yl)ethyl]amino]ethanol, monohydrochloride, hydrate (4:1)] |  |  |  |  |  |  |  |  | 320 nM | 4.1 µg/mL | < 0.46 µg/mL | 4.1 µg/mL | < 0.46 µg/mL | < 0.46 µg/mL | 82 nM | 134% | 156% | 169% | 195% | 
CCN(CC)CCn1nc2c3c(c([N+](=O)[O-])cc([N+](=O)[O-])c31)Nc1ccc(OC)cc1-2 [Example 50, N,N-Diethyl-9-methoxy-3,5-dinitropyrazolo[3,4,5-kl]acridine-2(6H)-ethanamine, methanesulfonate (1:1), hydrate] | 400 nM | < 0.46 µg/mL | < 0.46 µg/mL | < 0.46 µg/mL | < 0.46 µg/mL | 4.1 µg/mL | 160% | 166% |  |  |  |  |  |  |  |  |  |  |  | IC50 (HCT-8 cells; [4]): 66 nM; response vs control in vivo at 25 mg/kg [2, 7]: 169%; response vs control in vivo at 50 mg/kg ([2]; read-out: P388 in vivo T/C × 100, 50 mg/kg, intraperitoneally once daily for five days): 226%
CCN(CC)CCn1nc2ccc([N+](=O)[O-])c3c2c1-c1cc(OC)ccc1N3.CS(=O)(=O)O [Example 9, N,N-Diethyl-9-methoxy-5-nitropyrazolo[3,4,5-kl]acridine-1(6H)-ethanamine, monomethanesulfonate] |  |  |  |  |  |  |  |  |  |  |  |  |  |  |  |  | 120% | 135% | 167% | ABF zone diameter B. subtil. (Bacillus subtilis; dose not given): 15 mm; zone of inhibition at 100 µg/mL (Branhamella catarrhalis [3]): 16 mm; zone of inhibition at 100 µg/mL (Sarcina lutea; dose .1 mg/ml): 14 mm; zone of inhibition at 500 µg/mL (Streptococcus faecalis; dose .5 mg/ml): 18 mm
CCNCCn1nc2c3c(c([N+](=O)[O-])ccc31)Nc1ccc(OC)cc1-2 [Example 36, N-Ethyl-9-methoxy-5-nitropyrazolo[3,4,5-kl]acridine-2(6H)-ethanamine, 1.25 methanesulfonate salt (4:5), hemihydrate] |  |  |  |  |  |  |  |  | 210 nM | 1.4 µg/mL | < 0.46 µg/mL | < 0.46 µg/mL | < 0.46 µg/mL | 1.4 µg/mL | 120 nM |  | 169% | 160% | 223% | 
CCN(CC)CCn1nc2c3c(c([N+](=O)[O-])ccc31)Nc1ccc(N(C)C)cc1-2.CS(=O)(=O)O.CS(=O)(=O)O [Example 33, 9-(Dimethylamino)-N,N-diethyl-5-nitropyrazolo[3,4,5-kl]acridine-2(6H)-ethanamine, methanesulfonate (1:2)] |  |  |  |  |  |  |  |  | 900 nM | 37 µg/mL | 1.4 µg/mL | 12.3 µg/mL | 1.4 µg/mL | 37 µg/mL | 320 nM |  | 127% | 158% |  | 
COc1ccc2c(c1)-c1nn(CCNCCO)c3ccc([N+](=O)[O-])c(c13)N2 [Example 7, 2-[[2-(9-Methoxy-5-nitropyrazolo[3,4,5-kl]-acridin-2(6H)yl)ethyl]aminoethanol, monohydrochloride] |  |  |  |  |  |  |  |  |  |  |  |  |  |  |  | 138% | 138% | 149% | 163% | zone of inhibition at 500 µg/mL (Bacillus subtilis; Bacillus subtilis, dose .5 mg/ml, read-out: ABF zone diameter B. subtil.): 18 mm; zone of inhibition at 100 µg/mL (Branhamella catarrhalis [3]): 14 mm; zone of inhibition at 1000 µg/mL (Sarcina lutea; dose 1 mg/ml): 14 mm; zone of inhibition at 1000 µg/mL (Streptococcus faecalis; dose 1 mg/ml): 14 mm
CCOc1ccc2c(c1)-c1nn(CCN(C)C)c3ccc([N+](=O)[O-])c(c13)N2 [Example 37, 9-Ethoxy-N,N-dimethyl-5-nitropyrazolo[3,4,5-kl]acridine-2(6H)ethanamine, methanesulfonate (4:5)] |  |  |  |  |  |  |  |  | 270 nM | < 0.46 µg/mL | < 0.46 µg/mL | 1.4 µg/mL | < 0.46 µg/mL | 4.1 µg/mL | 25 nM | 191% | 234% |  |  | response vs control in vivo at 3.12 mg/kg ([2]; 3.12 mg/kg, intraperitoneally once daily for five days, read-out: P388 in vivo T/C × 100): 150%
